# From patent US8486373B2, “Intramolecularly-quenched near infrared fluorescent probes” (The General Hospital Corporation, priority 1998, dated 2013)
# Test: Properties of commercially-available near infrared fluorochromes
# Assay type: physicochemical
# Settings: Cy5.5 free in solution, FIG. 3A
# Excerpt: Fluorescent probes with excitation and emission wavelengths in the near infrared spectrum are used, i.e., 650-1300 nm. Use of this portion of the electromagnetic spectrum maximizes tissue penetration and minimizes absorption by physiologically abundant absorbers such as hemoglobin (<650 nm) and water (>1200 nm). […] Table 1 summarizes information on the properties of six commercially-available near infrared fluorochromes, whose structures are shown in FIGS. 2A and 2B.
substance,measurement,value
Cy5.5,emission wavelength / peak emission,694 nm
